Data on eleven compounds can be found in article PMC10512030, “Prolidase-proline oxidase axis is engaged in apoptosis induction by birch buds flavonol santin in endometrial adenocarcinoma cell line” (Frontiers in Molecular Biosciences, 2023).

Series [1] deals with cervical adenocarcinoma HeLa cells. Nature of the series: Cell viability MTT assay, HeLa. In kind it is cell-based, human.
Series [2] deals with endometrial adenocarcinoma Ishikawa cells. Description: Cell viability neutral red uptake assay, Ishikawa. Conditions: read-out: IC50 values ± SD in neutral red uptake assay. In kind it is cell-based, human.
For series [3] the test system is unchanged. Nature of the series: Cell viability MTT assay, Ishikawa. It is filed as cell-based, human. Conditions: read-out: IC50 values ± SD in MTT assay.
For series [4], the system named is normal fibroblasts (dermal fibroblasts CCD25Sk). Nature of the series: Cell viability neutral red uptake assay, fibroblasts. In kind it is cell-based, human. The following applies: read-out: IC50 values ± SD in neutral red uptake assay.
For series [5] the test system is unchanged. Nature of the series: Cell viability MTT assay, fibroblasts. In kind it is cell-based, human. The following applies: for IC50: Fibroblasts, read-out: IC50 values ± SD in MTT assay.
Series [6] concerns cervical adenocarcinoma HeLa cells. Nature of the series: Cell viability neutral red uptake assay, HeLa. The following applies: read-out: IC50 values ± SD in neutral red uptake assay. It is filed as cell-based, human.
For series [7], the system named is breast epithelial cells MCF 10A. Nature of the series: Cell viability MTT assay, MCF 10A. In kind it is cell-based, human. Conditions: 48 h.
The test system of series [8] is cervical adenocarcinoma HeLa cells. Conditions: cited from earlier work; for IC50: HeLa, ref Souza et al., 2017, read-out: IC50 determined by MTT assay.
Setting [9] is: Homo sapiens, HeLa, 24 h, HeLa, 24 h, read-out: IC50 values ± SD in MTT assay.
Where [10] appears, read: Homo sapiens, HeLa, 48 h, HeLa, 48 h, read-out: IC50 values ± SD in MTT assay.
The mark [11] stands for this setting: HeLa, 24 h, read-out: IC50 values ± SD in MTT assay.
The mark [12] stands for this setting: HeLa, 48 h, read-out: IC50 values ± SD in MTT assay.

Each structure is given as a SMILES string. Read-outs that look alike come from different tables or passages of the source.

For the compound `COc1cc(O)c2c(=O)c(OC)c(-c3ccc(O)cc3)oc2c1` [kumatakenin], the IC50 is more than 50 µM in series [1] (setting [9]); more than 50 µM in series [1] (setting [10]); more than 50 µM in series [2] (Homo sapiens, 24 h); more than 50 µM in series [2] (Homo sapiens, 48 h); 30.5 ± 2 µM in series [3] (Homo sapiens, 24 h); 24.2 ± 1.8 µM in series [3] (Homo sapiens, 48 h). Besides, the IC50 in series [4] (Homo sapiens, Fibroblast, 24 h) was 35.7 ± 2.5 µM; in series [4] (Homo sapiens, Fibroblast, 48 h) it was 15.3 ± 2.3 µM; in series [5] (Homo sapiens, Fibroblast, 24 h), 47 ± 5.6 µM; in series [5] (Homo sapiens, Fibroblast, 48 h), 42.9 ± 4.3 µM; in series [6] (Homo sapiens, 24 h) it was more than 50 µM; in series [6] (Homo sapiens, 48 h), more than 50 µM. In series [5] (fibroblasts, MTT and neutral red uptake assays, 24 and 48 h), the “effect on viability of fibroblasts” value is “significantly decreased viability”.
In the case of `N.N.[Cl][Pt][Cl]` [cisplatin, reference compound], the half-maximal inhibitory concentration (IC50) in series [1] (setting [11]) was 30 ± 2.7 µM; in series [1] (setting [12]) it was 9.4 ± 1.3 µM; in series [2] (24 h) it was 28.1 ± 2 µM; in series [2] (48 h), 11.7 ± 2.2 µM; in series [3] (24 h, listed as Cisplatin), more than 50 µM; in series [3] (24 h) it was more than 50 µM. Also, the IC50 is 12 ± 2 µM in series [3] (48 h); more than 50 µM in series [4] (24 h); 43.1 ± 3.5 µM in series [4] (48 h); more than 50 µM in series [5] (24 h); 40.5 ± 4.3 µM in series [5] (48 h); 20 ± 2.7 µM in series [6] (24 h). Moreover, the IC50 in series [6] (48 h) was 9.7 ± 2.3 µM; in series [7], 17.8 ± 2.3 µM.
Turning to `COc1ccc(-c2oc3cc(O)cc(O)c3c(=O)c2OC)cc1` [ermanin], the IC50 was more than 50 µM in series [1] (setting [9]); 31.8 ± 2.4 µM in series [1] (setting [10]); more than 50 µM in series [2] (Homo sapiens, 24 h); 46.7 ± 3.2 µM in series [2] (Homo sapiens, 48 h); more than 50 µM in series [3] (Homo sapiens, 24 h); more than 50 µM in series [3] (Homo sapiens, 48 h). Further, the IC50 in series [4] (Homo sapiens, Fibroblast, 24 h) is more than 50 µM; in series [4] (Homo sapiens, Fibroblast, 48 h), more than 50 µM; in series [5] (Homo sapiens, Fibroblast, 24 h), more than 50 µM; in series [5] (Homo sapiens, Fibroblast, 48 h) it was more than 50 µM; in series [6] (Homo sapiens, 24 h), 39 ± 2.9 µM; in series [6] (Homo sapiens, 48 h) it was 33.2 ± 1.9 µM.
On to `COc1cc2oc(-c3ccc(O)cc3)cc(=O)c2c(O)c1OC` [cirsimaritin], for which the IC50 in series [1] (setting [9]) was 36.6 ± 2.2 µM; in series [1] (setting [10]) it was 16 ± 1.9 µM; in series [2] (Homo sapiens, 24 h), 34.2 ± 2.7 µM; in series [2] (Homo sapiens, 48 h), 26.1 ± 2.1 µM; in series [3] (24 h), more than 50 µM; in series [3] (Homo sapiens, 24 h) it was more than 50 µM. Moreover, the IC50 is 19.6 ± 2.6 µM in series [3] (Homo sapiens, 48 h); more than 50 µM in series [4] (Homo sapiens, Fibroblast, 24 h); more than 50 µM in series [4] (Homo sapiens, Fibroblast, 48 h); more than 50 µM in series [5] (Homo sapiens, Fibroblast, 24 h); more than 50 µM in series [5] (Homo sapiens, Fibroblast, 48 h); 17.5 ± 2.4 µM in series [6] (Homo sapiens, 24 h). Further, the IC50 in series [6] (Homo sapiens, 48 h) amounted to 13.9 ± 1.4 µM.
On to `COc1ccc(-c2cc(=O)c3c(O)cc(OC)cc3o2)cc1` [apigenin 7,4′-O-dimethyl ether], for which the IC50 in series [1] (setting [11]) is more than 50 µM; in series [1] (setting [12]), more than 50 µM; in series [2] (24 h), more than 50 µM; in series [2] (48 h), more than 50 µM; in series [3] (24 h), 26.2 ± 1.9 µM; in series [3] (48 h), 20.9 ± 1.4 µM. Besides, the 50% inhibitory concentration (IC50) in series [4] (24 h) was 27.6 ± 2.8 µM; in series [4] (48 h), 7.6 ± 1.1 µM; in series [5] (24 h), 18 ± 3.9 µM; in series [5] (48 h) it was 10.9 ± 4.6 µM; in series [6] (24 h) it was more than 50 µM; in series [6] (48 h) it was more than 50 µM. Moreover, the “effect on viability of fibroblasts” value in series [5] is “significantly decreased viability”.
For the compound `O=c1c(O)c(-c2ccc(O)c(O)c2)oc2cc(O)cc(O)c12` [quercetin], the IC50 in series [1] (setting [9]) was more than 50 µM; in series [1] (setting [10]), more than 50 µM; in series [2] (Homo sapiens, 24 h), more than 50 µM; in series [2] (Homo sapiens, 48 h), 42.9 ± 3.8 µM; in series [3] (Homo sapiens, 24 h), more than 50 µM; in series [3] (Homo sapiens, 48 h), 45.4 ± 4.1 µM. In addition, the IC50 in series [4] (Homo sapiens, Fibroblast, 24 h) is more than 50 µM; in series [4] (Homo sapiens, Fibroblast, 48 h) it was more than 50 µM; in series [5] (Homo sapiens, Fibroblast, 24 h), more than 50 µM; in series [5] (Homo sapiens, Fibroblast, 48 h), more than 50 µM; in series [6] (Homo sapiens, 24 h) it was 39.1 ± 3.2 µM; in series [6] (Homo sapiens, 48 h), 36.9 ± 2 µM.
On to `O=c1c(O)c(-c2ccc(O)cc2)oc2cc(O)cc(O)c12` [kaempferol], for which the IC50 in series [1] (setting [9]) is more than 50 µM; in series [1] (setting [10]), more than 50 µM; in series [2] (Homo sapiens, 24 h), more than 50 µM; in series [2] (Homo sapiens, 48 h), more than 50 µM; in series [3] (Homo sapiens, 24 h) it was more than 50 µM; in series [3] (Homo sapiens, 48 h), more than 50 µM. Besides, the IC50 in series [4] (Homo sapiens, Fibroblast, 24 h) is more than 50 µM; in series [4] (Homo sapiens, Fibroblast, 48 h), more than 50 µM; in series [5] (Homo sapiens, Fibroblast, 24 h), more than 50 µM; in series [5] (Homo sapiens, Fibroblast, 48 h) it was more than 50 µM; in series [6] (Homo sapiens, 24 h) it was more than 50 µM; in series [6] (Homo sapiens, 48 h), 38.3 ± 2.5 µM.
On to `COc1ccc(C2CC(=O)c3c(O)cc(OC)cc3O2)cc1` (centres unmarked) [naringenin 7,4′-O-dimethyl ether], for which the IC50 is more than 50 µM in series [1] (setting [11]); more than 50 µM in series [1] (setting [12]); more than 50 µM in series [1] (cancer cells (HeLa and Ishikawa), MTT and neutral red uptake assays, 24 and 48 h, read-out: IC50, viability of cancer cells); more than 50 µM in series [2] (24 h); more than 50 µM in series [2] (48 h); more than 50 µM in series [3] (24 h). For the same compound, the IC50 in series [3] (48 h), in series [4] (24 h), in series [4] (48 h), in series [5] (24 h), in series [5] (48 h) and in series [6] (24 h) was more than 50 µM each time. Moreover, the concentration for half-maximal inhibition (IC50) in series [6] (48 h) was more than 50 µM.
For the compound `O=c1cc(-c2ccc(O)cc2)oc2cc(O)cc(O)c12` [apigenin, reference compound], the 50% inhibitory concentration (IC50) in series [1] (setting [9]) was approximately 30 µM; in series [1] (setting [10]), approximately 17.9 µM; in series [2] (Homo sapiens, 24 h) it was more than 50 µM; in series [2] (Homo sapiens, 48 h), 38 ± 2.1 µM; in series [3] (Homo sapiens, 24 h) it was more than 50 µM; in series [3] (Homo sapiens, 48 h), 33.1 ± 2.2 µM. The IC50 in series [4] (Homo sapiens, Fibroblast, 24 h) is more than 50 µM; in series [4] (Homo sapiens, Fibroblast, 48 h), 48.6 ± 3.1 µM; in series [5] (Homo sapiens, Fibroblast, 24 h), more than 50 µM; in series [5] (Homo sapiens, Fibroblast, 48 h) it was more than 50 µM; in series [8] (24 h), approximately 38 µM; in series [8] (48 h), approximately 10 µM. Further, the IC50 in series [6] (Homo sapiens, 24 h) is approximately 27 µM; in series [6] (Homo sapiens, 48 h) it was approximately 14.2 µM; in series [7] (Homo sapiens) it was 14.5 ± 1.8 µM.
Regarding `COc1cc(O)c2c(c1)O[C@H](c1ccc(O)cc1)CC2=O` [sakuranetin], the IC50 in series [1] (setting [9]) is more than 50 µM; in series [1] (setting [10]), more than 50 µM; in series [1] (Homo sapiens, HeLa, cancer cells (HeLa and Ishikawa), MTT and neutral red uptake assays, 24 and 48 h, read-out: IC50, viability of cancer cells) it was more than 50 µM; in series [2] (Homo sapiens, 24 h), more than 50 µM; in series [2] (Homo sapiens, 48 h), more than 50 µM; in series [3] (Homo sapiens, 24 h), more than 50 µM. For the same compound, the IC50 is more than 50 µM in series [3] (Homo sapiens, 48 h); more than 50 µM in series [4] (Homo sapiens, Fibroblast, 24 h); more than 50 µM in series [4] (Homo sapiens, Fibroblast, 48 h); more than 50 µM in series [5] (Homo sapiens, Fibroblast, 24 h); more than 50 µM in series [5] (Homo sapiens, Fibroblast, 48 h); more than 50 µM in series [6] (Homo sapiens, 24 h). Moreover, the IC50 in series [6] (Homo sapiens, 48 h) is more than 50 µM.
In the case of `O=c1cc(-c2ccc(O)c(O)c2)oc2cc(O)cc(O)c12` [luteolin, reference compound], the half-maximal inhibitory concentration (IC50) was 42.8 ± 3.6 µM in series [1] (setting [9]); more than 50 µM in series [2] (Homo sapiens, 24 h); 31.6 ± 2.9 µM in series [2] (Homo sapiens, 48 h); more than 50 µM in series [3] (Homo sapiens, 24 h); 25.9 ± 2.5 µM in series [3] (Homo sapiens, 48 h); more than 50 µM in series [4] (Homo sapiens, Fibroblast, 24 h). The IC50 is more than 50 µM in series [4] (Homo sapiens, Fibroblast, 48 h); more than 50 µM in series [5] (Homo sapiens, Fibroblast, 24 h); more than 50 µM in series [5] (Homo sapiens, Fibroblast, 48 h); 31.5 ± 2.5 µM in series [6] (Homo sapiens, 24 h); approximately 28 µM in series [6] (Homo sapiens, 48 h); 8.4 ± 1.5 µM in series [7] (Homo sapiens). For the same compound, the “reduction in HeLa cell viability” value in series [8] (20 μM luteolin, MTT assay, 48 h time point, ref Raina et al., 2021) is given as “about 50%”.
